Results on eleven molecules are retold here after PubChem BioAssay AID1390 (Sanford-Burnham Center for Chemical Genomics, 2008).

The source made the active and inactive calls.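 Rule for the calls: active = no band for the ATF-6 stress protein on the immunoblot of thapsigargin-stressed cell lysates; inactive = ATF-6 band still present, cleavage not blocked.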

In this assay the test system is CSM14.1 cells, thapsigargin, ATF-6 Western blot. The assay is described as follows: blockers of ER stress ATF-6 induction – cell-based, thapsigargin, Western blot, mechanism study for ER stress cell death inhibitors, late-stage follow-up (AID 1390). In general terms: A western blot detects proteins with antibodies after separation by electrophoresis.
`CSc1ccc(C2Nc3ccccc3NC3=C2C(=O)CC(c2ccccc2)C3)cc1` (stereo unspecified): the outcome was inactive.

In the case of `COc1ccc(C2CC(=O)C3=C(C2)Nc2ccccc2NC3c2cccc(C(F)(F)F)c2)cc1OC` (stereo unspecified), the outcome was inactive.

`COc1ccc(C2CC(=O)C3=C(C2)Nc2ccccc2NC3c2cccc(Br)c2)cc1OC` (stereo unspecified): the result was inactive.

In the case of `COc1ccc(C2CC(=O)C3=C(C2)Nc2ccccc2NC3c2cccc(Oc3ccccc3)c2)cc1OC` (stereo unspecified), the result was inactive.

With `CCCOc1ccc(C2Nc3ccccc3NC3=C2C(=O)CC(c2ccc(OC)c(OC)c2)C3)cc1` (stereo unspecified), the result was inactive.

Take `CC1(C)CC(=O)C2=C(C1)Nc1ccccc1NC2c1ccc(-c2ccccc2)cc1` (stereo unspecified): the outcome was inactive.

As to `CCOc1cc(C2Nc3ccccc3NC3=C2C(=O)CC(c2ccc(OC)cc2)C3)cc(Cl)c1O` (stereo unspecified), the result was inactive.

As for `COc1ccc(C2CC(=O)C3=C(C2)Nc2ccccc2NC3c2ccccc2C(F)(F)F)cc1OC` (stereo unspecified), the result was inactive.

Turning to `COc1ccc(C2CC(=O)C3=C(C2)Nc2ccccc2NC3c2cc(C)ccc2C)cc1` (stereo unspecified), the outcome was inactive.

For `O=C1CC(c2ccccc2)CC2=C1C(c1c(F)cccc1Cl)Nc1ccccc1N2` (stereo unspecified), the outcome was inactive.

Consider `CCOc1cccc(C2Nc3ccccc3NC3=C2C(=O)CC(c2ccc(OC)cc2)C3)c1` (stereo unspecified), for which the outcome was inactive.
